Measurements reported in ChEMBL document CHEMBL5335798 (J Med Chem, 2024).

Assay: Permeability of compound at pH 7.4 at 200 uM measured after 5 hrs by PAMPA assay

SMILES: CCC([Se]c1ccc2ccccc2c1)c1nc(N)nc(N2CCN(C)CC2)n1 (stereo unspecified)
- Papp at 5 h, 200 µM: 10.5 ×10⁻⁶ cm/s
